Reference: ChEMBL document CHEMBL1146387, “A new class of anti-MRSA and anti-VRE agents: preparation and antibacterial activities of indole-containing compounds” (2007)
Values after ≈ are worked out from the molar mass of the structure shown.

Experiments:
Assay type in all cases: functional
Staphylococcus aureus [1] = test: Antibacterial activity against methicillin-resistant Staphylococcus aureus MF535
Enterococcus faecium [2] = test: Antibacterial activity against vancomycin-resistant Enterococcus faecium VRA
Staphylococcus aureus [3] = test: Antibacterial activity against methicillin-susceptible Staphylococcus aureus 209P
Enterococcus faecium [4] = test: Antibacterial activity against Enterococcus faecium ATCC 19434

Row | SMILES | MIC (Staphylococcus aureus [1]) | MIC (Enterococcus faecium [2]) | MIC (Staphylococcus aureus [3]) | MIC (Enterococcus faecium [4])
1 | CC(=O)NCCc1c(C(c2cccc(Br)c2)c2c(O)c3ccccc3oc2=O)[nH]c2ccccc12 (configuration not stated) | > 128 µg/mL | > 128 µg/mL | > 128 µg/mL | > 128 µg/mL
2 | O=C(OCCc1c(C(c2ccccc2)c2c(O)c3ccccc3oc2=O)[nH]c2ccccc12)c1ccccc1 (configuration not stated) | 8 µg/mL (≈ 15.5 µM) | 16 µg/mL (≈ 31 µM) | 8 µg/mL (≈ 15.5 µM) | 16 µg/mL (≈ 31 µM)
3 | COc1ccccc1C(=O)OCCc1c(C(c2cccc(Br)c2)c2c(O)cc(C)oc2=O)[nH]c2ccccc12 (configuration not stated) | 64 µg/mL (≈ 109 µM) | 64 µg/mL (≈ 109 µM) | 32 µg/mL (≈ 54.4 µM) | 64 µg/mL (≈ 109 µM)
4 | COc1ccc(C(c2[nH]c3ccccc3c2CCOC(=O)c2ccccc2)c2c(O)c3ccccc3oc2=O)cc1 (configuration not stated) | 8 µg/mL (≈ 14.7 µM) | 16 µg/mL (≈ 29.3 µM) | 8 µg/mL (≈ 14.7 µM) | 16 µg/mL (≈ 29.3 µM)
5 | Cn1c(=O)c(C(c2ccc(C(F)(F)F)cc2)c2[nH]c3ccccc3c2CCNS(=O)(=O)c2ccccc2)c(O)c2ccccc21 (configuration not stated) | 1 µg/mL (≈ 1.58 µM) | 2 µg/mL (≈ 3.17 µM) | 1 µg/mL (≈ 1.58 µM) | 4 µg/mL (≈ 6.33 µM)
6 | O=C(OCCc1c(C(c2ccc(OC(F)(F)F)cc2)c2c(O)c3ccccc3oc2=O)[nH]c2ccccc12)c1ccccc1 (configuration not stated) | 2 µg/mL (≈ 3.34 µM) | 0.5 µg/mL (≈ 0.834 µM) | 2 µg/mL (≈ 3.34 µM) | 0.5 µg/mL (≈ 0.834 µM)
7 | COc1ccccc1C(=O)OCCc1c(C(c2cncc(Br)c2)c2c(O)c3ccccc3oc2=O)[nH]c2ccccc12 (configuration not stated) | 128 µg/mL (≈ 205 µM) | 128 µg/mL (≈ 205 µM) | 64 µg/mL (≈ 102 µM) | 128 µg/mL (≈ 205 µM)
8 | CC(=O)NCCc1c(C(c2cccc(Br)c2)c2c(O)c3ccccc3n(C)c2=O)[nH]c2ccccc12 (configuration not stated) | 32 µg/mL (≈ 58.8 µM) | > 128 µg/mL | 32 µg/mL (≈ 58.8 µM) | > 128 µg/mL
9 | COc1ccccc1C(=O)OCCc1c(C(c2cccc(Br)c2)c2c(O)c3ccccc3n(C)c2=O)[nH]c2ccccc12 (configuration not stated) | > 128 µg/mL | > 128 µg/mL | > 128 µg/mL | > 128 µg/mL
10 | O=C(OCCc1c(C(c2cccc(C(F)(F)F)c2)c2c(O)c3ccccc3oc2=O)[nH]c2ccccc12)c1ccccc1 (configuration not stated) | 4 µg/mL (≈ 6.85 µM) | 1 µg/mL (≈ 1.71 µM) | 4 µg/mL (≈ 6.85 µM) | 2 µg/mL (≈ 3.43 µM)
11 | CSc1ccc(C(c2[nH]c3ccccc3c2CCOC(=O)c2ccccc2)c2c(O)c3ccccc3oc2=O)cc1 (configuration not stated) | 8 µg/mL (≈ 14.2 µM) | 4 µg/mL (≈ 7.12 µM) | 4 µg/mL (≈ 7.12 µM) | 4 µg/mL (≈ 7.12 µM)
12 | Cc1ccc(C(c2[nH]c3ccccc3c2CCOC(=O)c2ccccc2)c2c(O)c3ccccc3oc2=O)cc1 (configuration not stated) | 4 µg/mL (≈ 7.55 µM) | 8 µg/mL (≈ 15.1 µM) | 4 µg/mL (≈ 7.55 µM) | 8 µg/mL (≈ 15.1 µM)
13 | Cn1c(=O)c(C(c2cccc(Br)c2)c2[nH]c3ccccc3c2CCOC(=O)c2ccccc2)c(O)c2ccccc21 (configuration not stated) | 2 µg/mL (≈ 3.29 µM) | > 128 µg/mL | 1 µg/mL (≈ 1.65 µM) | > 128 µg/mL
14 | Cn1c(=O)c(C(c2cccc(Br)c2)c2[nH]c3ccccc3c2CCOC(=O)Cc2ccccc2)c(O)c2ccccc21 (configuration not stated) | > 128 µg/mL | > 128 µg/mL | 64 µg/mL (≈ 103 µM) | > 128 µg/mL
15 | O=C(OCCc1c(C(c2cccc(F)c2)c2c(O)c3ccccc3oc2=O)[nH]c2ccccc12)c1ccccc1 (configuration not stated) | 8 µg/mL (≈ 15 µM) | 8 µg/mL (≈ 15 µM) | 4 µg/mL (≈ 7.5 µM) | 8 µg/mL (≈ 15 µM)
16 | Cc1cccc(C(c2[nH]c3ccccc3c2CCOC(=O)c2ccccc2)c2c(O)c3ccccc3oc2=O)c1 (configuration not stated) | 8 µg/mL (≈ 15.1 µM) | 4 µg/mL (≈ 7.55 µM) | 8 µg/mL (≈ 15.1 µM) | 8 µg/mL (≈ 15.1 µM)
17 | O=C(OCCc1c(C(c2ccc(Br)cc2)c2c(O)c3ccccc3oc2=O)[nH]c2ccccc12)c1ccccc1 (configuration not stated) | 2 µg/mL (≈ 3.36 µM) | 2 µg/mL (≈ 3.36 µM) | 2 µg/mL (≈ 3.36 µM) | 2 µg/mL (≈ 3.36 µM)
18 | Cn1c(=O)c(C(c2ccc(C(F)(F)F)cc2)c2[nH]c3ccccc3c2CCOC(=O)c2ccccc2)c(O)c2ccccc21 (configuration not stated) | 1 µg/mL (≈ 1.68 µM) | 8 µg/mL (≈ 13.4 µM) | 0.5 µg/mL (≈ 0.838 µM) | 8 µg/mL (≈ 13.4 µM)

Row | SMILES | MIC (Staphylococcus aureus [1]) | MIC (Enterococcus faecium [2]) | MIC (Staphylococcus aureus [3]) | MIC (Enterococcus faecium [4])
19 | Cn1c(=O)c(C(c2ccc(C(F)(F)F)cc2)c2[nH]c3ccccc3c2CCNC(=O)c2ccccc2)c(O)c2ccccc21 (configuration not stated) | 16 µg/mL (≈ 26.9 µM) | 16 µg/mL (≈ 26.9 µM) | 8 µg/mL (≈ 13.4 µM) | 16 µg/mL (≈ 26.9 µM)
20 | Cn1c(=O)c(C(c2ccc(C(F)(F)F)cc2)c2[nH]c3ccccc3c2CCOC(=O)Cc2ccccc2)c(O)c2ccccc21 (configuration not stated) | 1 µg/mL (≈ 1.64 µM) | > 128 µg/mL | 1 µg/mL (≈ 1.64 µM) | > 128 µg/mL
21 | Cn1c(=O)c(C(c2ccc(C(F)(F)F)cc2)c2[nH]c3ccccc3c2CCOC(=O)C2CCCCC2)c(O)c2ccccc21 (configuration not stated) | 1 µg/mL (≈ 1.66 µM) | 1 µg/mL (≈ 1.66 µM) | 1 µg/mL (≈ 1.66 µM) | 2 µg/mL (≈ 3.32 µM)
22 | CN(C(=O)NCCc1c(C(c2ccc(C(F)(F)F)cc2)c2c(O)c3ccccc3n(C)c2=O)[nH]c2ccccc12)c1ccccc1 (configuration not stated) | 1 µg/mL (≈ 1.6 µM) | 1 µg/mL (≈ 1.6 µM) | 1 µg/mL (≈ 1.6 µM) | 2 µg/mL (≈ 3.2 µM)
23 | Cn1c(=O)c(C(c2ccc(OC(F)(F)F)cc2)c2[nH]c3ccccc3c2CCOC(=O)c2ccccc2)c(O)c2ccccc21 (configuration not stated) | 1 µg/mL (≈ 1.63 µM) | > 128 µg/mL | 0.5 µg/mL (≈ 0.816 µM) | > 128 µg/mL
24 | Cn1c(=O)c(C(c2ccc(OC(F)(F)F)cc2)c2[nH]c3ccccc3c2CCOC(=O)Cc2ccccc2)c(O)c2ccccc21 (configuration not stated) | 1 µg/mL (≈ 1.6 µM) | 2 µg/mL (≈ 3.19 µM) | 1 µg/mL (≈ 1.6 µM) | 32 µg/mL (≈ 51.1 µM)
25 | Cn1c(=O)c(C(c2ccc(OC(F)(F)F)cc2)c2[nH]c3ccccc3c2CCOC(=O)C2CCCCC2)c(O)c2ccccc21 (configuration not stated) | 1 µg/mL (≈ 1.62 µM) | 2 µg/mL (≈ 3.23 µM) | 1 µg/mL (≈ 1.62 µM) | 2 µg/mL (≈ 3.23 µM)
26 | O=C(OCCc1c(C(c2ccc(OC(F)(F)F)cc2)c2c(O)c3cc(Cl)ccc3oc2=O)[nH]c2ccccc12)c1ccccc1 (configuration not stated) | 2 µg/mL (≈ 3.15 µM) | 1 µg/mL (≈ 1.58 µM) | 2 µg/mL (≈ 3.15 µM) | 1 µg/mL (≈ 1.58 µM)
27 | O=C(OCCc1c(C(c2ccc(C(F)(F)F)cc2)c2c(O)c3ccccc3oc2=O)[nH]c2ccccc12)c1ccccc1 (configuration not stated) | 2 µg/mL (≈ 3.43 µM) | 2 µg/mL (≈ 3.43 µM) | 2 µg/mL (≈ 3.43 µM) | 2 µg/mL (≈ 3.43 µM)
28 | COc1ccccc1C(=O)OCCc1c(C(c2cccc(Br)c2)c2c(O)c3ccccc3oc2=O)[nH]c2ccccc12 (configuration not stated) | 8 µg/mL (≈ 12.8 µM) | 8 µg/mL (≈ 12.8 µM) | 4 µg/mL (≈ 6.41 µM) | 8 µg/mL (≈ 12.8 µM)
29 | COc1ccccc1C(=O)NCCc1c(C(c2cccc(Br)c2)c2c(O)c3ccccc3oc2=O)[nH]c2ccccc12 (configuration not stated) | 16 µg/mL (≈ 25.7 µM) | 32 µg/mL (≈ 51.3 µM) | 8 µg/mL (≈ 12.8 µM) | 32 µg/mL (≈ 51.3 µM)
30 | O=C(OCCc1c(C(c2cccc(Br)c2)c2c(O)c3ccccc3oc2=O)[nH]c2ccccc12)c1ccccc1 (configuration not stated) | 4 µg/mL (≈ 6.73 µM) | 4 µg/mL (≈ 6.73 µM) | 4 µg/mL (≈ 6.73 µM) | 4 µg/mL (≈ 6.73 µM)
31 | CC(=O)OCCc1c(C(c2cccc(Br)c2)c2c(O)c3ccccc3n(C)c2=O)[nH]c2ccccc12 (configuration not stated) | 16 µg/mL (≈ 29.3 µM) | 32 µg/mL (≈ 58.7 µM) | 16 µg/mL (≈ 29.3 µM) | 64 µg/mL (≈ 117 µM)
32 | Cn1c(=O)c(C(c2ccc(OC(F)(F)F)cc2)c2[nH]c3ccccc3c2CCNC(=O)c2ccccc2)c(O)c2ccccc21 (configuration not stated) | 128 µg/mL (≈ 209 µM) | > 128 µg/mL | 8 µg/mL (≈ 13.1 µM) | > 128 µg/mL
33 | CC(=O)OCCc1c(C(c2cccc(Br)c2)c2c(O)c3ccccc3oc2=O)[nH]c2ccccc12 (configuration not stated) | 32 µg/mL (≈ 60.1 µM) | 32 µg/mL (≈ 60.1 µM) | 32 µg/mL (≈ 60.1 µM) | 64 µg/mL (≈ 120 µM)
34 | CC(=O)NC[C@H]1CN(c2ccc(N3CCOCC3)c(F)c2)C(=O)O1 [LINEZOLID] | 1 µg/mL (≈ 2.96 µM) | 2 µg/mL (≈ 5.93 µM) | 1 µg/mL (≈ 2.96 µM) | 2 µg/mL (≈ 5.93 µM)
35 | CN[C@H](CC(C)C)C(=O)N[C@H]1C(=O)N[C@@H](CC(N)=O)C(=O)N[C@H]2C(=O)N[C@H]3C(=O)N[C@H](C(=O)N[C@H](C(=O)O)c4cc(O)cc(O)c4-c4cc3ccc4O)[C@H](O)c3ccc(c(Cl)c3)Oc3cc2cc(c3O[C@@H]2O[C@H](CO)[C@@H](O)[C@H](O)[C@H]2O[C@H]2C[C@](C)(N)[C@H](O)[C@H](C)O2)Oc2ccc(cc2Cl)[C@H]1O [VANCOMYCIN] |  | > 128 µg/mL |  | 
